Measured values taken from ChEMBL document CHEMBL4145512, “Design, synthesis and biological evaluation of new coumarin-dithiocarbamate hybrids as multifunctional agents for the treatment of Alzheimer's disease” (Eur J Med Chem, 2018).
Calls of active or inactive are those of the source. The calls are words filed in the database; no cut-off is given here.

How the values were obtained:
[1] = biological target: T1, Acetylcholinesterase (Homo sapiens, UniProt P22303); assay: Inhibition of human erythrocyte AChE using acetylthiocholine iodide as substrate preincubated for 6 mins followed by substrate addition measured up to 180 secs by Ellman's method
T1 sequence (P22303 whole entry): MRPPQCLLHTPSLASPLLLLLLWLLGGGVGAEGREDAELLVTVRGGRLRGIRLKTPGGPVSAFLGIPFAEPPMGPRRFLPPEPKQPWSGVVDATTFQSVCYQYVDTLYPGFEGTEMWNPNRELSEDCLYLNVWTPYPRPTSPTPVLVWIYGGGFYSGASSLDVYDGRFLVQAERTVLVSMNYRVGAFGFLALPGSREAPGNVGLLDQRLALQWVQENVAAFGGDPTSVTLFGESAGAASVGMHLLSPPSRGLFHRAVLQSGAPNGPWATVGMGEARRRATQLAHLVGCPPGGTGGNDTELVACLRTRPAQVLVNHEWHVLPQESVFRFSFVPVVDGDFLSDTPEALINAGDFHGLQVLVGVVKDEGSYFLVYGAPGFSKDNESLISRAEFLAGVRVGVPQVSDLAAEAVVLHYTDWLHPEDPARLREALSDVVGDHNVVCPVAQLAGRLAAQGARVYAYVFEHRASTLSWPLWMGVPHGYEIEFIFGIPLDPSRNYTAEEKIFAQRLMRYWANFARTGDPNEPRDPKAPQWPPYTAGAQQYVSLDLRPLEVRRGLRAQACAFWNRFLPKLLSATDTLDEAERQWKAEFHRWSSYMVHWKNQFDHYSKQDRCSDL

[2] = biological target: BuChE (butyrylcholinesterase) (Homo sapiens, UniProt P06276); assay: Inhibition of human serum BuChE at 10 uM using S-butyrylthiocholine iodide as substrate preincubated for 6 mins followed by substrate addition measured up to 180 secs by Ellman's method relative to control; settings: probe S-butyrylthiocholine iodide
BuChE (butyrylcholinesterase), sequence (P06276 whole entry): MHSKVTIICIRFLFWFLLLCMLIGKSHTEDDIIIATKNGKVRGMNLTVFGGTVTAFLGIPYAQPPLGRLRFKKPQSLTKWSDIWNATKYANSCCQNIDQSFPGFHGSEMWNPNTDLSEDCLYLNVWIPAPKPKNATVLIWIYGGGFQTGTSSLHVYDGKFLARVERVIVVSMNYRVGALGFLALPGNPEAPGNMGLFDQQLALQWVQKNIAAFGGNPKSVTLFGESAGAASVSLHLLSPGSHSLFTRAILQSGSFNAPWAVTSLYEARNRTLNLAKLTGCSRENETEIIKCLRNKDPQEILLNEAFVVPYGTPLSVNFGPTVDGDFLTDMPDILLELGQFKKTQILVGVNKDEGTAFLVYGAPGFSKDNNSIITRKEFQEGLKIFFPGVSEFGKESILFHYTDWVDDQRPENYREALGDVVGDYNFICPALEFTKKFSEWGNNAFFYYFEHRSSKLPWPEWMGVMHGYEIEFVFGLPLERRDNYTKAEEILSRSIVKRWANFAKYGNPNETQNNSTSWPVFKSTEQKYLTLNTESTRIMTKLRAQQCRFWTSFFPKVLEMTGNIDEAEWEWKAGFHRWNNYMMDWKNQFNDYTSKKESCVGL

[3] = biological target: T1, Acetylcholinesterase; assay: Inhibition of human erythrocyte AChE at 10 uM using acetylthiocholine iodide as substrate preincubated for 6 mins followed by substrate addition measured up to 180 secs by Ellman's method relative to control
[4] = tested on: Mus musculus; assay: Antialzheimer activity in scopolamine induced Kunming mouse cognitive deficit model assessed as latency time at 20.6 mg/kg, po treated for 1 hr followed by training trial and subsequent addition of scopolamine at 30 mins post trial measured for 24 hrs interval; assay type: functional
[5] = biological target: T1, Acetylcholinesterase; assay: […] inhibition of human erythrocyte AChE using acetylthiocholine iodide as substrate preincubated for 6 mins followed by substrate addition measured up to 180 secs by Lineweaver-Burk plot analysis
[6] = tested on: Mus musculus; assay: Nephrotoxicity in Kunming mouse at 1000 mg/kg, po measured at day 14 by microscopic analysis; assay type: toxicity, organism-based; settings: in vivo
[7] = tested on: Mus musculus; assay: Antialzheimer activity in scopolamine induced po dosed Kunming mouse cognitive deficit model assessed as reduction in number of errors treated for 1 hr followed by training trial and subsequent addition of scopolamine at 30 mins post trial measured for 24 hrs interval; assay type: functional, organism-based
[8] = biological target: T1, Acetylcholinesterase; assay: Mixed type inhibition of human erythrocyte AChE at 12.5 to 50 nM using acetylthiocholine iodide as substrate preincubated for 6 mins followed by substrate addition measured up to 180 secs by Lineweaver-Burk plot analysis
[9] = tested on: Mus musculus; assay: Hepatotoxicity in Kunming mouse at 1000 mg/kg, po measured at day 14 by microscopic analysis; assay type: toxicity, organism-based; settings: in vivo
[10] = Metal chelating activity assessed as compound-Fe3+ complex formation at 25 uM by UV-Vis spectrophotometry
[11] = tested on: Mus musculus; assay: Cardiotoxicity in Kunming mouse at 1000 mg/kg, po measured at day 14 by microscopic analysis; assay type: toxicity, organism-based; settings: in vivo
[12] = biological target: T1, Acetylcholinesterase; assay: Potency index, ratio of donepenzil IC50 to compound IC50 for human erythrocyte AChE
[13] = Metal chelating activity assessed as compound-Zn2+ complex formation at 25 uM by UV-Vis spectrophotometry
[14] = tested on: Mus musculus; assay: Toxicity in Kunming mouse assessed as death at 1000 mg/kg, po observed continuously for the first 4 hrs and intermittently for next 24 hrs and occasionally thereafter for 14 days; assay type: organism-based; settings: in vivo
[15] = Cytotoxicity against human SH-SY5Y cells assessed as cell viability at 100 uM after 24 hrs by MTT assay relative to control; assay type: cell-based; settings: read-out: Activity
[16] = tested on: Mus musculus; assay: Antialzheimer activity in scopolamine induced po dosed Kunming mouse cognitive deficit model assessed as reduction in latency treated for 1 hr followed by training trial and subsequent addition of scopolamine at 30 mins post trial measured for 24 hrs interval; assay type: functional, organism-based
[17] = Cytotoxicity against human SH-SY5Y cells assessed as cell viability at 50 uM after 24 hrs by MTT assay relative to control; assay type: cell-based; settings: read-out: Activity
[18] = tested on: Mus musculus; assay: Toxicity in Kunming mouse assessed as reduction in body weight at 1000 mg/kg, po observed continuously for the first 4 hrs and intermittently for next 24 hrs and occasionally thereafter for 14 days; assay type: organism-based; settings: in vivo
[19] = Cytotoxicity against human SH-SY5Y cells assessed as cell viability at 12.5 uM after 24 hrs by MTT assay relative to control; assay type: cell-based; settings: read-out: Activity
[20] = Cytotoxicity against human SH-SY5Y cells assessed as cell viability at 25 uM after 24 hrs by MTT assay relative to control; assay type: cell-based; settings: read-out: Activity
[21] = tested on: Mus musculus; assay: Antialzheimer activity in scopolamine induced Kunming mouse cognitive deficit model assessed as latency time at 5.2 mg/kg, po treated for 1 hr followed by training trial and subsequent addition of scopolamine at 30 mins post trial measured for 24 hrs interval; assay type: functional
[22] = tested on: Mus musculus; assay: Toxicity in Kunming mouse assessed as change in water consumption at 1000 mg/kg, po observed continuously for the first 4 hrs and intermittently for next 24 hrs and occasionally thereafter for 14 days; assay type: organism-based; settings: in vivo
[23] = in vitro; settings: PAMPA
Description: Effective permeability at 25 ug/ml after 16 hrs by PAMPA

[24] = Metal chelating activity assessed as compound-Cu2+ complex formation at 25 uM by UV-Vis spectrophotometry
[25] = tested on: Mus musculus; assay: Antialzheimer activity in scopolamine induced Kunming mouse cognitive deficit model assessed as latency time at 10.3 mg/kg, po treated for 1 hr followed by training trial and subsequent addition of scopolamine at 30 mins post trial measured for 24 hrs interval; assay type: functional
[26] = Metal chelating activity assessed as association constant for compound-Fe3+ complex formation by Job's plot analysis
[27] = Metal chelating activity assessed as compound-Fe2+ complex formation at 25 uM by UV-Vis spectrophotometry
[28] = tested on: Mus musculus; assay: Toxicity in Kunming mouse assessed as change in food consumption at 1000 mg/kg, po observed continuously for the first 4 hrs and intermittently for next 24 hrs and occasionally thereafter for 14 days; assay type: organism-based; settings: in vivo

`Cc1cc(=O)oc2cc(OCCCSC(=S)N3CCCCC3)ccc12` showed an IC50 [1] of 290 nM and an inhibition at 0.05 h, 10 µM [2] of 31.2%.
Work on `Cc1cc(=O)oc2cc(OCCSC(=S)N(C)C)ccc12` yielded an IC50 [1] of 10600 nM and an inhibition at 0.05 h, 10 µM [2] of less than 5%.
Work on `Cc1cc(=O)oc2cc(OCCSC(=S)N3CCCC3)ccc12` yielded an IC50 [1] of 890 nM and an inhibition at 0.05 h, 10 µM [2] of less than 5%.
Work on `Cc1cc(=O)oc2cc(OCCSC(=S)N3CCCCC3)ccc12` yielded an IC50 [1] of 470 nM and an inhibition at 0.05 h, 10 µM [2] of 37.2%.
Molecule `Cc1cc(=O)oc2cc(OCCCCCCCCSC(=S)N3CCCCC3)ccc12` has an inhibition [3] of less than 5% and an inhibition at 0.05 h, 10 µM [2] of less than 5%.
Work on `Cc1cc(=O)oc2cc(OCCSC(=S)N3CCC(N4CCCCC4)CC3)ccc12` yielded an IC50 [1] of 1160 nM and an inhibition at 0.05 h, 10 µM [2] of 24.3%.
`Cc1cc(=O)oc2cc(OCCSC(=S)N3CCC(O)CC3)ccc12` showed an inhibition [3] of less than 5% and an inhibition at 0.05 h, 10 µM [2] of less than 5%.
Work on `Cc1cc(=O)oc2cc(OCCSC(=S)N3CCN(C(C)C)CC3)ccc12` yielded an IC50 [1] of 1990 nM and an inhibition at 0.05 h, 10 µM [2] of 28.1%.
For `Cc1cc(=O)oc2cc(OCCSC(=S)N3CCOCC3)ccc12`, the inhibition [3] was 11% and the inhibition at 0.05 h, 10 µM [2] was less than 5%.
Molecule `CCN(CC)C(=S)SCCOc1ccc2c(C)cc(=O)oc2c1` has an IC50 [1] of 1940 nM and an inhibition at 0.05 h, 10 µM [2] of 10.9%.
`Cc1cc(=O)oc2cc(OCCCCCSC(=S)N3CCCCC3)ccc12` showed an IC50 [1] of 210 nM and an inhibition at 0.05 h, 10 µM [2] of 10.1%.
`Cc1cc(=O)oc2cc(OCCSC(=S)N(CCO)CCO)ccc12` gave an inhibition [3] of 34.5% and an inhibition at 0.05 h, 10 µM [2] of less than 5%.
Work on `Cc1cc(=O)oc2cc(OCCSC(=S)N3CCN(C4CC4)CC3)ccc12` yielded an inhibition [3] of 18.7% and an inhibition at 0.05 h, 10 µM [2] of less than 5%.
`Cc1cc(=O)oc2cc(OCCSC(=S)N3CCN(C)CC3)ccc12` showed an inhibition [3] of 36.8% and an inhibition at 0.05 h, 10 µM [2] of less than 5%.
Molecule `Cc1cc(=O)oc2cc(OCCSC(=S)N3CCN(c4ncccn4)CC3)ccc12` has an inhibition [3] of 12.3% and an inhibition at 0.05 h, 10 µM [2] of less than 5%.
With `Cc1cc(=O)oc2cc(OCCCCSC(=S)N3CCCCC3)ccc12` the Time [4] was 192 s, the Ki [5] was 37.1 nM and the Activity [6] was “Non-Toxic”. The Activity [7] was “Dose-dependent effect”, the inhibition [8] was “Active” and the Activity [9] was “Non-Toxic”. For the same molecule, the Activity [10] was “Active”, the Activity [11] was “Non-Toxic” and the IC50 [1] was 27 nM. For the same molecule, the Ratio IC50 [12] was 1.5, the Activity [13] was “inactive” and the Activity [14] was “Non-Toxic”. For the same molecule, the viability at 24 h, 100 µM [15] was 80.3%, the Activity [16] was “Dose-dependent effect” and the viability at 24 h, 50 µM [17] was 90.1%. The Activity [18] was “Non-Toxic”, the viability at 24 h, 12.5 µM [19] was 99.2% and the viability at 24 h, 25 µM [20] was 101%. The Time [21] was 151 s, the Activity [22] was “Non-Toxic” and the Papp at 16 h, 25 ug/ml [23] was 9.21 ×10⁻⁶ cm/s. The Activity [24] was “inactive”, the Time [25] was 182 s and the Ka [26] was 1.69 ×10³ /M. For the same molecule, the Activity [27] was “inactive”, the Activity [28] was “Non-Toxic” and the inhibition at 0.05 h, 10 µM [2] was 15.3%.
Work on `Cc1cc(=O)oc2cc(OCCCCCCSC(=S)N3CCCCC3)ccc12` yielded an IC50 [1] of 610 nM and an inhibition at 0.05 h, 10 µM [2] of 6.21%.
